Where two headings read alike, the source gives them in different places.
Assay: Noncompartmental pharmacokinetic parameters (Cmax, Tmax, AUC, Racc) in QD and BID cohorts of Form B
Assay type: in vivo, human
Settings: Compound III; for AUC(0-t) / Cmax / Tmax: human, plasma, oral
Protocol: Analysis of plasma concentration versus time data for calculation of standard pharmacokinetic (PK) parameters following oral administration was conducted using Phoenix WinNonlin version 6.3 using actual blood sampling times.
The following pharmacokinetic parameters were calculated from the concentration versus time data obtained in Example 1 for each of the above QD (200 mg, 300 mg, 400 mg, 500 mg, or 650 mg dosed) and BID (100 mg, 150 mg, or 200 mg doses) Form B of Compound II dosage cohorts: • Cmax—the observed peak plasma concentration determined from the plasma concentration versus time data obtained on Day 1 and Day 29, as applicable; • Tmax—the time to reach the observed peak plasma concentration from the plasma concentration versus time data obtained on Day 1 and Day 29, as applicable; • AUC—area under the plasma concentration versus time curve during a dosing interval on Day 1 and Day 29, as applicable; and • Racc—accumulation ratio calculated as AUCDay 29/AUCDay 1.

[1] = 100 mg BID of Form B, Cohort 6, Day 1
[2] = 100 mg BID of Form B, Cohort 6, Day 29
[3] = 150 mg BID of Form B, Cohort 7, Day 1
[4] = 150 mg BID of Form B, Cohort 7, Day 29
[5] = 200 mg BID of Form B, Cohort 8, Day 1
[6] = 200 mg BID of Form B, Cohort 8, Day 29
[7] = 200 mg QD of Form B, Cohort 1, Day 1
[8] = 200 mg QD of Form B, Cohort 1, Day 29
[9] = 300 mg QD of Form B, Cohort 2, Day 1
[10] = 300 mg QD of Form B, Cohort 2, Day 29
[11] = 400 mg QD of Form B, Cohort 3, Day 1
[12] = 400 mg QD of Form B, Cohort 3, Day 29
[13] = 500 mg QD of Form B, Cohort 4, Day 1
[14] = 500 mg QD of Form B, Cohort 4, Day 29
[15] = 650 mg QD of Form B, Cohort 5, Day 1
[16] = 650 mg QD of Form B, Cohort 5, Day 29

AUClast (Max) [1]: 8.61 ng·h/mL | AUClast (Min) [1]: 2.87 ng·h/mL | Cmax (Max) [1]: 2.12 ng/mL | Cmax (Min) [1]: 1.11 ng/mL | AUClast (Max) [2]: 21.6 ng·h/mL | AUClast (Min) [2]: 3.45 ng·h/mL | Cmax (Max) [2]: 3.11 ng/mL | Cmax (Min) [2]: 0.855 ng/mL | Tmax (Max) [2]: 12.0 h | AUClast (Max) [3]: 17.5 ng·h/mL | AUClast (Min) [3]: 15.7 ng·h/mL | Cmax (Max) [3]: 3.67 ng/mL | Cmax (Min) [3]: 2.93 ng/mL | AUClast (Max) [4]: 101 ng·h/mL | AUClast (Min) [4]: 19.4 ng·h/mL | Cmax (Max) [4]: 12.2 ng/mL | Cmax (Min) [4]: 2.93 ng/mL | AUClast (Max) [5]: 25.4 ng·h/mL | AUClast (Min) [5]: 6.18 ng·h/mL | Cmax (Max) [5]: 4.07 ng/mL | Cmax (Min) [5]: 1.40 ng/mL | AUClast (Max) [6]: 30.8 ng·h/mL | AUClast (Min) [6]: 15.2 ng·h/mL | Cmax (Max) [6]: 4.12 ng/mL | Cmax (Min) [6]: 1.49 ng/mL | Tmax (Max) [6]: 12.0 h | AUClast (Max) [7]: 58.5 ng·h/mL | AUClast (Min) [7]: 5.29 ng·h/mL | Cmax (Max) [7]: 7.82 ng/mL | Cmax (Min) [7]: 1.27 ng/mL | AUClast (Max) [8]: 64.2 ng·h/mL | AUClast (Min) [8]: 1.97 ng·h/mL | Cmax (Max) [8]: 6.11 ng/mL | Cmax (Min) [8]: 0.864 ng/mL | AUClast (Max) [9]: 65.2 ng·h/mL | AUClast (Min) [9]: 10.9 ng·h/mL | Cmax (Max) [9]: 6.40 ng/mL | Cmax (Min) [9]: 1.82 ng/mL | Tmax (Min) [9]: 60 min | AUClast (Max) [10]: 97.5 ng·h/mL | AUClast (Min) [10]: 45.1 ng·h/mL | Cmax (Max) [10]: 6.05 ng/mL | Cmax (Min) [10]: 4.70 ng/mL | Tmax (Max) [10]: 8.00 h | AUClast (Max) [11]: 29.8 ng·h/mL | AUClast (Min) [11]: 17.8 ng·h/mL | Cmax (Max) [11]: 6.87 ng/mL | Cmax (Min) [11]: 3.02 ng/mL | Tmax (Min) [11]: 60 min | AUClast (Max) [12]: 54.7 ng·h/mL | AUClast (Min) [12]: 32.2 ng·h/mL | Cmax (Max) [12]: 4.54 ng/mL | Cmax (Min) [12]: 2.55 ng/mL | AUClast (Max) [13]: 91.4 ng·h/mL | AUClast (Min) [13]: 61.6 ng·h/mL | Cmax (Max) [13]: 9.03 ng/mL | Cmax (Min) [13]: 6.84 ng/mL | AUClast (Max) [14]: 69.8 ng·h/mL | AUClast (Min) [14]: 59.8 ng·h/mL | Cmax (Max) [14]: 7.91 ng/mL | AUClast (Max) [15]: 174 ng·h/mL | AUClast (Min) [15]: 61.8 ng·h/mL | Cmax (Max) [15]: 16.5 ng/mL | Cmax (Min) [15]: 5.56 ng/mL | Tmax (Max) [15]: 8.00 h | AUClast (Max) [16]: 169 ng·h/mL | AUClast (Min) [16]: 80.6 ng·h/mL | Cmax (Max) [16]: 12.1 ng/mL | Cmax (Min) [16]: 5.30 ng/mL | Tmax (Max) [16]: 8.00 h | AUC(0-t) (100 mg, 100 mg BID of Form B, Cohort 6, Day 1, read-out: AUClast (Mean)): 5.37 ng·h/mL | AUC(0-t) (100 mg, 100 mg BID of Form B, Cohort 6, Day 1, read-out: AUClast (Median)): 5.18 ng·h/mL | Cmax (100 mg, 100 mg BID of Form B, Cohort 6, Day 1, read-out: Cmax (Mean)): 1.59 ng/mL | Cmax (100 mg, 100 mg BID of Form B, Cohort 6, Day 1, read-out: Cmax (Median)): 1.6 ng/mL | Tmax (100 mg, 100 mg BID of Form B, Cohort 6, Day 1, read-out: Tmax (Mean)): 3.17 h | Tmax (100 mg, 100 mg BID of Form B, Cohort 6, Day 1, read-out: Tmax (Median)): 3 h | AUC(0-t) (100 mg, 100 mg BID of Form B, Cohort 6, Day 29, read-out: AUClast (Mean)): 13 ng·h/mL | AUC(0-t) (100 mg, 100 mg BID of Form B, Cohort 6, Day 29, read-out: AUClast (Median)): 9.86 ng·h/mL | Cmax (100 mg, 100 mg BID of Form B, Cohort 6, Day 29, read-out: Cmax (Mean)): 1.89 ng/mL | Cmax (100 mg, 100 mg BID of Form B, Cohort 6, Day 29, read-out: Cmax (Median)): 1.56 ng/mL | Tmax (100 mg, 100 mg BID of Form B, Cohort 6, Day 29, read-out: Tmax (Mean)): 4.4 h | Tmax (100 mg, 100 mg BID of Form B, Cohort 6, Day 29, read-out: Tmax (Median)): 2 h | AUC(0-t) (150 mg, 150 mg BID of Form B, Cohort 7, Day 1, read-out: AUClast (Mean)): 16.5 ng·h/mL
Structure (SMILES): O=C1NCC2(CCCCC2)n2c1cc1cnc(Nc3ccc(N4CCNCC4)cn3)nc12 [Compound III, 2′-((5-(piperazin-1-yl)pyridin-2-yl)amino)-7′,8′-dihydro-6′H-spiro[cyclohexane-1,9′-pyrazino[1′,2′:1,5]pyrrolo[2,3-d]pyrimidin]-6′-one]
